# Test results published in patent US20070276022A1, “Optically Active Carboxamides” (priority 2003, published 2007).
# System: Podosphaera leucotricha
# Test: Podosphaera test (apple)/protective
# Assay type: in vivo
# Settings: protective, 12.5 g/ha, evaluation 10 days after inoculation
# Method: (§1) For the production of an appropriate active compound preparation 1 part by weight of active compound is mixed with the given amount of solvent and emulsifier and the concentrate is diluted to the desired concentration with water.
# (§2) For the investigation for the protective activity young plants are sprayed with the active compound preparation in the amount specified. After drying of the spray coating the plants are inoculated with an aqueous spore suspension of the apple mildew pathogen Podosphaera leucotricha. The plants are then placed in a greenhouse at ca. 23° C. and a relative humidity of ca. 70%.
# (§3) Evaluation is carried out 10 days after the inoculation. A level of activity of 0% corresponds to the level of activity of the control, whereas a level of activity of 100% means that no infestation is observed.
row,SMILES,Level of activity in % [%]
1,CC(C)C[C@H](C)c1ccccc1NC(=O)c1cn(C)cc1C(F)(F)F [drawing 41],98
2,CC(C)C[C@@H](C)c1ccccc1NC(=O)c1cn(C)cc1C(F)(F)F [drawing 42],28

# Same assay, conditions: protective, 50 g/ha, evaluation 10 days after inoculation
row,SMILES,Level of activity in % [%]
1,CC(C)C[C@H](C)c1ccccc1NC(=O)c1ccccc1C(F)(F)F [drawing 39],100
2,CC(C)C[C@@H](C)c1ccccc1NC(=O)c1ccccc1C(F)(F)F [drawing 40],20

# System: Sphaerotheca fuliginea
# Test: Sphaerotheca test (cucumber)/protective
# Assay type: in vivo
# Settings: protective, 3.125 g/ha, evaluation 7 days after inoculation
# Method: as §1
# as §2, with “of” for “for”, “young cucumber” for “young”, “Sphaerotheca fuliginea.” for “the apple mildew pathogen Podosphaera leucotricha.”
# Evaluation is carried out 7 days after the inoculation. A level of activity of 0% corresponds to the level of activity of the control, whereas a level of activity of 100% means that no infestation is observed.
row,SMILES,Level of activity in % [%]
1,CC(C)C[C@H](C)c1sccc1NC(=O)c1cn(C)nc1C(F)(F)F [drawing 53],98
2,CC(C)C[C@@H](C)c1sccc1NC(=O)c1cn(C)nc1C(F)(F)F [drawing 54],35

# Same assay, conditions: protective, 25 g/ha, evaluation 7 days after inoculation
row,SMILES,Level of activity in % [%]
1,Cc1nn(C)c(F)c1C(=O)Nc1ccccc1[C@H](C)CC(C)C [drawing 44],7
2,Cc1nn(C)c(F)c1C(=O)Nc1ccccc1[C@@H](C)CC(C)(C)C [drawing 45],94
3,Cc1nn(C)c(F)c1C(=O)Nc1ccccc1[C@H](C)CC(C)(C)C [drawing 46],0
4,Cc1nn(C)c(F)c1C(=O)Nc1ccccc1[C@@H](C)CC(C)C [drawing 47],96
5,CC(C)C[C@H](C)c1ccccc1NC(=O)c1ccccc1I [drawing 51],85
6,CC(C)C[C@@H](C)c1ccccc1NC(=O)c1ccccc1I [drawing 52],15

# Same assay, conditions: protective, 50 g/ha, evaluation 7 days after inoculation
row,SMILES,Level of activity in % [%]
1,CC(C)C[C@H](C)c1ccccc1NC(=O)c1cn(C)cc1C(F)(F)F [drawing 55],91
2,CC(C)C[C@@H](C)c1ccccc1NC(=O)c1cn(C)cc1C(F)(F)F [drawing 56],23

# System: Venturia inaequalis
# Test: Venturia test (apple)/protective
# Assay type: in vivo
# Settings: protective, 3.125 g/ha, evaluation 10 days after inoculation
# Method: as §1
# For the investigation of the protective activity young plants are sprayed with the active compound preparation in the amount specified. After drying of the spray coating the plants are inoculated with an aqueous conidial suspension of the apple scab pathogen Venturia inaequalis then left for 1 day in an incubator at ca. 20° C. and a relative humidity of 100%.
# The plants are then placed in a greenhouse at ca. 21° C. and a relative humidity of ca. 90%.
# as §3
row,SMILES,Level of activity in % [%]
1,CC(C)C[C@H](C)c1sccc1NC(=O)c1cn(C)nc1C(F)(F)F [drawing 65],100
2,CC(C)C[C@@H](C)c1sccc1NC(=O)c1cn(C)nc1C(F)(F)F [drawing 66],7

# Same assay, conditions: protective, 25 g/ha, evaluation 10 days after inoculation
row,SMILES,Level of activity in % [%]
1,Cc1nn(C)c(F)c1C(=O)Nc1ccccc1[C@@H](C)CC(C)C [drawing 57],100
2,Cc1nn(C)c(F)c1C(=O)Nc1ccccc1[C@H](C)CC(C)C [drawing 58],21
3,Cc1nn(C)c(F)c1C(=O)Nc1ccccc1[C@@H](C)CC(C)(C)C [drawing 59],100
4,Cc1nn(C)c(F)c1C(=O)Nc1ccccc1[C@H](C)CC(C)(C)C [drawing 60],0
5,CC(C)C[C@H](C)c1ccccc1NC(=O)c1ccccc1C(F)(F)F [drawing 61],100
6,CC(C)C[C@@H](C)c1ccccc1NC(=O)c1ccccc1C(F)(F)F [drawing 62],0
7,CC(C)C[C@H](C)c1ccccc1NC(=O)c1ccccc1I [drawing 63],100
8,CC(C)C[C@@H](C)c1ccccc1NC(=O)c1ccccc1I [drawing 64],16

# Same assay, conditions: protective, 50 g/ha, evaluation 10 days after inoculation
row,SMILES,Level of activity in % [%]
1,CC(C)C[C@H](C)c1ccccc1NC(=O)c1cn(C)cc1C(F)(F)F [drawing 67],100
2,CC(C)C[C@@H](C)c1ccccc1NC(=O)c1cn(C)cc1C(F)(F)F [drawing 68],20

# System: Botrytis cinera
# Test: Botrytis test (bean)/protective
# Assay type: in vivo
# Settings: protective, 62.5 g/ha, evaluation 2 days after inoculation
# Method: as §1
# For the investigation the protective activity young plants are sprayed with the active compound preparation in the amount specified. After drying of the spray coating 2 small pieces of agar coated with Botrytis cinera are placed on each leaf. The inoculated plants are then placed in a darkened room at ca 20° C. and a relative humidity of 100%.
# The size of the infestation spots on the leaves are evaluated 2 days after the inoculation. A level of activity of 0% corresponds to the level of activity of the control, whereas a level of activity of 100% means that no infestation is observed.
row,SMILES,Level of activity in % [%]
1,CC(C)C[C@H](C)c1ccccc1NC(=O)c1cn(C)cc1C(F)(F)F [drawing 77],100
2,CC(C)C[C@@H](C)c1ccccc1NC(=O)c1cn(C)cc1C(F)(F)F [drawing 78],50

# Same assay, conditions: protective, 250 g/ha, evaluation 2 days after inoculation
row,SMILES,Level of activity in % [%]
1,Cc1nn(C)c(F)c1C(=O)Nc1ccccc1[C@@H](C)CC(C)C [drawing 69],100
2,Cc1nn(C)c(F)c1C(=O)Nc1ccccc1[C@H](C)CC(C)C [drawing 70],29
3,Cc1nn(C)c(F)c1C(=O)Nc1ccccc1[C@@H](C)CC(C)(C)C [drawing 71],100
4,Cc1nn(C)c(F)c1C(=O)Nc1ccccc1[C@H](C)CC(C)(C)C [drawing 72],14
5,CC(C)C[C@H](C)c1ccccc1NC(=O)c1ccccc1C(F)(F)F [drawing 73],90
6,CC(C)C[C@@H](C)c1ccccc1NC(=O)c1ccccc1C(F)(F)F [drawing 74],18
7,CC(C)C[C@H](C)c1ccccc1NC(=O)c1ccccc1I [drawing 75],86
8,CC(C)C[C@@H](C)c1ccccc1NC(=O)c1ccccc1I [drawing 76],0

# System: Alternaria solani
# Test: Alternaria test (tomato)/protective
# Assay type: in vivo
# Settings: protective, 50 g/ha, evaluation 3 days after inoculation
# Method: as §1
# as §2, with “of” for “for”, “Alternaria solani.” for “the apple mildew pathogen Podosphaera leucotricha.”, “an incubator” for “a greenhouse”, “20°” for “23°”, “100%.” for “ca. 70%.”
# Evaluation is carried out 3 days after the inoculation. A level of activity of 0% corresponds the level of activity of the control, whereas a level of activity of 100% means that no infestation is observed.
row,SMILES,Level of activity in % [%]
1,CC(C)C[C@H](C)c1ccccc1NC(=O)c1cn(C)cc1C(F)(F)F [drawing 79],83
2,CC(C)C[C@@H](C)c1ccccc1NC(=O)c1cn(C)cc1C(F)(F)F [drawing 80],30
